The values below come from BindingDB's records for doi:10.1016/s0960-894x(02)00294-9 (Glaxosmithkline, 2002).

In this assay the target is Human cytomegalovirus protease (HHV-5). In words: Tested in vitro for its binding affinity against Protease.

The term Ki denotes a measure of affinity in units of concentration, obtained from inhibition or displacement. Read a high Ki as weaker binding.

In turn, `C[C@@H]1[C@H](C)[C@@H]1C(=O)N1C(=O)[C@@H](C)[C@@H]2[C@@H]1CCN2C(=O)[C@@H]1CCCN1S(=O)(=O)c1cccc2c(N(C)C)cccc12` [4-[1-(5-dimethylamino-1-naphthylsulfonyl)tetrahydro-1H-2-pyrrolylcarbonyl]-1-(2,3-dimethylcyclopropylcarbonyl)-3-methylperhydropyrrolo[3,2-b]pyrrol-2-one] had a Ki of 1100 nM.

Molecule `C[C@@H]1C(=O)N(c2nccs2)[C@H]2CCN(C(=O)[C@@H]3CCCN3S(=O)(=O)c3cccc4c(N(C)C)cccc34)[C@H]12` [(3S,3aR,6aS)-4-[(S)-1-(5-Dimethylamino-naphthalene-1-sulfonyl)-pyrrolidine-2-carbonyl]-3-methyl-1-thiazol-2-yl-hexahydro-pyrrolo[3,2-b]pyrrol-2-one] came in with a Ki of 400 nM.
